Measured values reported in US20150284360A1, “AMIDE DERIVATIVES OF ANILINE-RELATED COMPOUNDS AND COMPOSITIONS THEREOF” (C&C BIOPHARMA, LLC, priority 2014, published 2015).
In brackets after ≈: the same amount, converted by molar mass.

Legend:
[1] = Solubility of a compound in water; format: physicochemical; conditions: compound added until saturated
Protocol: Solubility of a compound was obtained by adding the compound into water of known volume (e.g. 1 mL) until saturated, measuring the amount of the compound added, and obtaining the solubility of the compound in water (mg/mL) (Table 9).

[2] = In vitro conversion of prodrug Lys-CC30.2HCl to parent drug CC30 in rat plasma (HPLC-MS); format: in vitro ADME; conditions: for HPLC-MS Peak Area of Parent Drug, CC30: formed from Lys-CC30•2HCl in rat plasma; for % Conversion of prodrug to CC30 / HPLC-MS Peak Area of Prodrug, Lys-CC30•2HCl: rat plasma
Protocol: Lys-CC30.2HCl (2.53 mg) was dissolved in 200 μl of water to obtain an aqueous solution concentration of 12.6 mg/ml. 4 μl of the Lys-CC30.2HCl solution was thoroughly mixed with 100 μl of rat plasma. This mixture was divided into 10 aliquots (10 μl) placed in 1.5 ml tubes. One tube was placed on ice and was used as the 0 time point. The other 9 samples were placed in an incubator at 37° C. At 5, 10, 30, 60, 120, and 240 minutes, a tube was taken out from incubation and placed on ice to stop or slow down the reaction. The samples were diluted with water (50-fold), mixed, and pelleted by centrifugation at 4° C. and 14,000 rpm for 5 min. The supernatant (˜200-300 μl) was used for HPLC-MS analysis. The % conversion was calculated by dividing the peak area of the parent drug by the peak area of the prodrug at time 0, and then multiplying by 100 (Table 10).
After 60 minutes of incubation, almost half (44.7%) of the Lys-CC30.2HCl prodrug converted to CC30 (Table 10).

[3] = In vivo conversion of prodrug Lys-CC30.2HCl to parent drug CC30 in a rat after intravenous administration (plasma, HPLC-MS); set-up: species or system Sprague-Dawley rat; conditions: for HPLC-MS Peak Area of Parent drug, CC30 in the rat: rat plasma after Lys-CC30.2HCl 2 mg/kg intravenous; for HPLC-MS Peak Area of Prodrug, Lys-CC30•2HCl in the rat: rat plasma, Lys-CC30.2HCl 2 mg/kg intravenous
Protocol: A Male Sprague-Dawley rat weighing 200-220 g was used to study the pharmacokinetics of the prodrug Lys-CC30.2HCl. Food was prohibited for 12 hours before the experiment, but water was freely available. Blood samples (0.2 ml) were collected through orbital venous plexus blood into heparinized 1.5 ml polyethene tubes at 0, 2, 5, 10, 15, 20, 30, 45 and 60 minute time points after the intravenous administration of Lys-CC30.2HCl (2 mg/kg). The samples were immediately centrifuged at 3000 g for 10 minutes. The plasma obtained (100 μl) was stored at −20° C. until analyzed. Plasma Lys-CC30.2HCl and parent drug CC30 concentrations in the collected blood samples were analyzed by HPLC-MS.
The parent drug was detected in the rat for at least 60 minutes, whereas the prodrug was no longer detected after 20 minutes (Table 11)(FIG. 10B).

[4] = Cyclization in simulated gastric fluid (SGF), acidic condition; format: physicochemical; conditions: SGF pH=1.3 with pepsin, 37° C., 4 hours
Protocol: Simulated gastric fluid (SGF) was prepared by thoroughly mixing diluted hydrochloric acid (16.4 ml), water (800 ml), and 10 g of pepsin together, and then bring the volume up to 1000 ml with water (pH=1.3). Diluted hydrochloric acid was prepared by mixing 234 ml of concentrated hydrochloric acid with water to a final volume of 1000 ml. Lys-CC30.2HCl (2.53 mg) or CC30 were separately dissolved in 200 μl of water to obtain an aqueous solution concentration of 12.6 mg/ml. 4 μl of the Lys-CC30.2HCl solution and the CC30 solution were thoroughly mixed with 1 ml of SGF in separate tubes. The mixtures were placed in an incubator at 37° C. for 4 hours. The samples were diluted with water 50-fold, mixed, and pelleted by centrifugation at 4° C. and 14,000 rpm for 5 min. The supernatants (˜200-300 μl) were used for HPLC-MS analysis.

[5] = after Lys-CC30.2HCl 2 mg/kg intravenous

Nc1ccccc1NC(=O)CCCCCC(=O)Nc1cccc(Br)c1 [CC30]
Solubility in Water [1]: 0.006 mg/mL (≈ 14.8 µM)
HPLC-MS Peak Area of Parent Drug, CC30 ([2]; 37° C., 5 min): 880074
HPLC-MS Peak Area of Parent Drug, CC30 ([2]; 37° C., 10 min): 1131442
HPLC-MS Peak Area of Parent Drug, CC30 ([2]; 37° C., 30 min): 2039869
HPLC-MS Peak Area of Parent Drug, CC30 ([2]; 37° C., 60 min): 2762843
HPLC-MS Peak Area of Parent Drug, CC30 ([2]; 37° C., 120 min): 4280514
HPLC-MS Peak Area of Parent Drug, CC30 ([2]; 37° C., 240 min): 4438887
HPLC-MS Peak Area of Parent Drug, CC30 ([2]; time 0 min (on ice)): 617276
Time for which the parent drug was detected in the rat [3, 5]: at least 60 minutes
HPLC-MS Peak Area of Parent drug, CC30 in the rat ([3]; 0 min): 4792335
HPLC-MS Peak Area of Parent drug, CC30 in the rat ([3]; 2 min): 2994581
HPLC-MS Peak Area of Parent drug, CC30 in the rat ([3]; 5 min): 2162228
HPLC-MS Peak Area of Parent drug, CC30 in the rat ([3]; 10 min): 1225981
HPLC-MS Peak Area of Parent drug, CC30 in the rat ([3]; 15 min): 712348
HPLC-MS Peak Area of Parent drug, CC30 in the rat ([3]; 20 min): 425079
HPLC-MS Peak Area of Parent drug, CC30 in the rat ([3]; 30 min): 232663
HPLC-MS Peak Area of Parent drug, CC30 in the rat ([3]; 45 min): 199152
HPLC-MS Peak Area of Parent drug, CC30 in the rat ([3]; 60 min): 44686
Fraction that formed an inactive cyclized product [4]: 5%

Cl.Cl.NCCCC[C@H](N)C(=O)Nc1ccccc1NC(=O)CCCCCC(=O)Nc1cccc(Br)c1 [Lys-CC30•2HCl]
Solubility in Water [1]: 750 mg/mL
% Conversion of prodrug to CC30 ([2]; 37° C., 5 min): 14.2%
HPLC-MS Peak Area of Prodrug, Lys-CC30•2HCl ([2]; 37° C., 5 min): 5900784
% Conversion of prodrug to CC30 ([2]; 37° C., 10 min): 18.3%
HPLC-MS Peak Area of Prodrug, Lys-CC30•2HCl ([2]; 37° C., 10 min): 5623041
% Conversion of prodrug to CC30 ([2]; 37° C., 30 min): 33.0%
HPLC-MS Peak Area of Prodrug, Lys-CC30•2HCl ([2]; 37° C., 30 min): 5199304
% Conversion of prodrug to CC30 ([2]; 37° C., 60 min): 44.7%
HPLC-MS Peak Area of Prodrug, Lys-CC30•2HCl ([2]; 37° C., 60 min): 3678701
% Conversion of prodrug to CC30 ([2]; 37° C., 60 min, listed as Lys-CC30.2HCl): 44.7%
% Conversion of prodrug to CC30 ([2]; 37° C., 120 min): 69.2%
HPLC-MS Peak Area of Prodrug, Lys-CC30•2HCl ([2]; 37° C., 120 min): 921181
% Conversion of prodrug to CC30 ([2]; 37° C., 240 min): 71.8%
HPLC-MS Peak Area of Prodrug, Lys-CC30•2HCl ([2]; 37° C., 240 min): 498331
HPLC-MS Peak Area of Prodrug, Lys-CC30•2HCl ([2]; 37° C., time 0 min (on ice)): 6182672
% Conversion of prodrug to CC30 ([2]; time 0 min, parent peak area / prodrug peak area at time 0 x 100): 10.0%
Time after which the prodrug was no longer detected in the rat [3, 5]: 20 min
Conversion in the rat to the parent drug CC30 (in words) ([3]; after injection of Lys-CC30.2HCl 2 mg/kg intravenous, time zero): immediately started converting
HPLC-MS Peak Area of Prodrug, Lys-CC30•2HCl in the rat ([3]; 0 min): 5199661
HPLC-MS Peak Area of Prodrug, Lys-CC30•2HCl in the rat ([3]; 2 min): 2388965
HPLC-MS Peak Area of Prodrug, Lys-CC30•2HCl in the rat ([3]; 5 min): 838012
HPLC-MS Peak Area of Prodrug, Lys-CC30•2HCl in the rat ([3]; 10 min): 173555
HPLC-MS Peak Area of Prodrug, Lys-CC30•2HCl in the rat ([3]; 15 min): 40200
HPLC-MS Peak Area of Prodrug, Lys-CC30•2HCl in the rat ([3]; 20 min): 8674
Formation of cyclized product (in words) [4]: No similarly cyclized product was formed
